Results on 17 molecules are retold here after patent publication US9067888B2, “Inhibitors of protein kinases” (Ingenium Pharmaceuticals GmbH, priority 2010, dated 2015).

For experiment [1], the system named is TNF-alpha inducible reporter gene. The experiment is described as follows: Inhibition of TNF-alpha-induced reporter gene expression (luciferase) in HeLa-derived cell line. The experiment is classed as cell-based, human. Particulars: remaining luciferase activity in presence of 3 μM of compound as ratio of DMSO-treated cells, TNF-alpha 50 ng/ml; for activity at 3 µM: Homo sapiens, 6 h, read-out: Efficacy (ratio to DMSO) TNF-alpha induced response; for Efficacy (ratio to DMSO) TNF-alpha induced response: 6 hours. From the text: TNF-alpha responsive cell lines like the human HeLa cell line can be used to study cellular responses to TNF-alpha, e.g. transcriptional regulation of a transfected TNF-alpha responsive reporter gene, and effects of kinase inhibitors on this response.
In order to analyse compound effects on TNF-alpha mediated transcriptional response, a HeLa-derived cell line stably transfected with a TNF-alpha inducible reporter gene was used (Panomics Catalog No. RC0013). The cell line was obtained by co-transfection of a luciferase reporter gene (Panomics P/N LR0051) and pHyg into human cervical epithelial HeLa cells, followed by hygromycin selection. TNFα-induced luciferase activity was used to select clones from the hygromycin-resistant cells. The cell line was maintained and stimulated according to the manufacturer's instructions. Briefly, cells were seeded at 5×10^5/well in 1 ml of growth medium in a 12-well plate and incubated in a humidified incubator at 37° C. and 5% CO2 for 24 hours. Medium was replaced with 1 ml of serum free medium and compounds were added up to concentrations of […]. After 1 hour of incubation, TNF-alpha was added to achieve a final concentration of 50 ng/ml. The culture dish was further incubated in a humidified incubator at 37° C. and 5% CO2 for 6 hours, medium was removed and 100 μL of lysis buffer were added to each well and the assay for luciferase activity was performed according to assay manufacturer's (Promega P/N E1500) recommendations. For more information about this cell line, go to worldwide website www(dot)panomics.com.
Compound effects on TNF-alpha-induced reporter gene expression is shown in column 6 in Table 1 given below. Indicated is the remaining luciferase activity after incubation in presence of 3 μM of compound as a ratio of the activity of DMSO-treated cells without compound. Specifically, it was intended to distinguish cell permeable compounds from other compounds having significant inhibitory potency with regard to other CDKs, but fail to penetrate cells or are unstable under the conditions of the experiment.
On the technique in general: Reporter assays use an easily measured gene product as a stand-in for the process of interest.

Another experiment has as its target CDK9 (Homo sapiens (Human), UniProt P50750). Put plainly: In vitro kinase inhibition, KinaseProfiler service of Millipore, residual activity. The experiment is classed as biochemical. Particulars: for remaining activity at 0.01 µM / CDK9 10 nM (RA in %): residual activity at 10 nM compound; for remaining activity at 0.01 µM: read-out: CDK9 10 nM (RA in %); for remaining activity at 0.1 µM / CDK9 100 nM (RA in %): residual activity at 100 nM compound; for remaining activity at 0.1 µM: read-out: CDK9 100 nM (RA in %). From the text:
In vitro kinase assay analysis may be performed using standard techniques described in the art. These techniques are also used by commercial services providers in order to offer in vitro kinase activity assay services, e.g. the assays offered by Millipore Inc. (worldwide website www(dot)millipore.com), ProQinase GmbH (worldwide website www(dot)proqinase.de) and others.
In vitro kinase inhibition results shown in columns 7 to 9 in Table 1 were obtained by employing the KinaseProfiler™ service of Millipore and used to select compounds displaying specificity for CDK9. Specifically, it was intended to distinguish the CDK9-specific compounds from other compounds having significant inhibitory potency also with regard to other CDKs.

CDK9, sequence (P50750 whole entry): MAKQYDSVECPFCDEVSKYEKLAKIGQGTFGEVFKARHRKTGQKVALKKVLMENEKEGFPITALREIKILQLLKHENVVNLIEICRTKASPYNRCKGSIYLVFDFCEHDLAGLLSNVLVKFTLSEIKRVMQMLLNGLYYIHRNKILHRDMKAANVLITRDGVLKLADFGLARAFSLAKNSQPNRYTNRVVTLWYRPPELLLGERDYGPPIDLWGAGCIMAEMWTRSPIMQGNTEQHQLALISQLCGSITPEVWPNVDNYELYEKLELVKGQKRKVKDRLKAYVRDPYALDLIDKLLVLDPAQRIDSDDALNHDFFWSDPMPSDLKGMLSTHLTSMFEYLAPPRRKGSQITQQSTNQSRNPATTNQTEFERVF
CDK9, sequence (O60563 whole entry partner): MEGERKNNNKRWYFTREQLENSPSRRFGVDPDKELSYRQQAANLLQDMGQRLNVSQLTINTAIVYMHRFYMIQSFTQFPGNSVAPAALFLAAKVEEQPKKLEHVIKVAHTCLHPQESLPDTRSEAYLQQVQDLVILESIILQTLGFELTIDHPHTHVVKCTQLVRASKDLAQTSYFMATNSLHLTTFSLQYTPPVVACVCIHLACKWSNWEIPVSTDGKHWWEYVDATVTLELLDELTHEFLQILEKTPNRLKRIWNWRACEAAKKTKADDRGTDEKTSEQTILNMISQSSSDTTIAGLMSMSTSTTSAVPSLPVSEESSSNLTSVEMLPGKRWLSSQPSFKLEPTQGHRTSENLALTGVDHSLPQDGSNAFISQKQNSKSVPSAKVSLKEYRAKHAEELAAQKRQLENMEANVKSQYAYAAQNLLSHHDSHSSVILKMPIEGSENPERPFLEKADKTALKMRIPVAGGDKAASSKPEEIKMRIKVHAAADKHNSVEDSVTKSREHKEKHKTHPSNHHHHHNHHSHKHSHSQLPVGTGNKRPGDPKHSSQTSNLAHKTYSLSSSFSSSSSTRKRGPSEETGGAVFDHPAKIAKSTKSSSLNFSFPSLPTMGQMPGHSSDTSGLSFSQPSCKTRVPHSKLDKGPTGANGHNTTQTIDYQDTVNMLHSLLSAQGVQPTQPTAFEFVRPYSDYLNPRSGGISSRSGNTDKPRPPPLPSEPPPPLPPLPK

In the case of `COc1cc(F)ccc1-c1ccnc(NC(=O)CC(C)c2ccc(N3CCN(C)CC3)cc2)c1` (stereo not drawn) [Example 29, N-(4-(4-Fluoro-2-methoxyphenyl)pyridin-2-yl)-3-(4-(4-methylpiperazin-1-yl)phenyl)butanamide], the activity at 3 µM in experiment [1] came out at 105%. Besides, on CDK9, the remaining activity at 0.01 µM is 95% and the remaining activity at 0.1 µM is 39%.
On the same counts, the results for `COc1cc(F)ccc1-c1ccnc(NC(=O)C(C)Cc2ccc(N3CCN(C)CC3)cc2)c1` (stereo not drawn) [Example 28, 2-(4-(4-Methylpiperazin-1-yl)benzyl)-N-(4-(4-fluoro-2-methoxyphenyl)-pyridin-2-yl)propanamide] are 121%, 88% and 49%.
As to `COc1ccc(F)cc1-c1ccnc(NC(=O)C(C)c2cccs2)c1` (stereo not drawn) [Example 17, N-(4-(5-Fluoro-2-methoxyphenyl)pyridin-2-yl)-2-(thiophen-2-yl)propanamide], in experiment [1], the “Efficacy (ratio to DMSO) TNF-alpha induced response” value was determined as 0.88. Further, on CDK9, the “CDK9 10 nM (RA in %)” value came to 114% and the “CDK9 100 nM (RA in %)” value was determined as 97%.
As for `COc1cc(F)ccc1-c1ccnc(NC(=O)C(C)Cc2ccncc2)c1` (stereo not drawn) [Example 22, N-(4-(4-Fluoro-2-methoxyphenyl)pyridin-2-yl)-2-((pyridin-4-yl)methyl)-propanamide], the activity at 3 µM in experiment [1] is 98%. In addition, on CDK9, the remaining activity at 0.01 µM was 93% and the remaining activity at 0.1 µM worked out at 39%.
The matching figures for `COc1cc(F)ccc1-c1ccnc(NC(=O)C2CNC(=O)C2)c1` (stereo not drawn) [Example 5, N-(4-(4-Fluoro-2-methoxyphenyl)pyridin-2-yl)-5-oxopyrrolidine-3-carboxamide]: 4%, 46% and 5%.
With `COc1ccc(F)cc1-c1ccnc(NC(=O)C(C)c2cccs2)c1` (stereo not drawn) [Example 18, N-(4-(5-Fluoro-2-methoxyphenyl)pyridin-2-yl)-2-(thiophen-2-yl)propanamide], the “Efficacy (ratio to DMSO) TNF-alpha induced response” value in experiment [1] is 0.07. Further, on CDK9, the “CDK9 10 nM (RA in %)” value turned out to be 32% and the “CDK9 100 nM (RA in %)” value amounted to 5%.
Regarding `COc1cc(F)ccc1-c1ccnc(NC(=O)[C@H]2CC[C@@H](NC(C)=O)C2)c1` [Example 41, (1S,3R)-3-Acetamido-N-(4-(4-fluoro-2-methoxyphenyl)pyridin-2-yl)cyclopentanecarboxamide], in experiment [1], the activity at 3 µM turned out to be 3%. At CDK9, the remaining activity at 0.01 µM is 38% and the remaining activity at 0.1 µM came out at 8%.
For the molecule `COc1cc(F)ccc1-c1ccnc(NC(=O)[C@H]2CC[C@@H](Nc3ccccn3)CC2)c1` [Example 30, N-(4-(4-Fluoro-2-methoxyphenyl)pyridin-2-yl)-4-(pyridin-2-ylamino)-cis-cyclohexanecarboxamide], the activity at 3 µM in experiment [1] stood at 3%. Further, at CDK9, the remaining activity at 0.01 µM turned out to be 29% and the remaining activity at 0.1 µM came out at 4%.
The matching figures for `COc1cc(F)ccc1-c1ccnc(NC(=O)[C@H]2CC[C@@H](Nc3ccccc3)CC2)c1` [Example 36, cis-N-(4-(4-Fluoro-2-methoxyphenyl)pyridin-2-yl)-4-(phenylamino)-cyclohexanecarboxamide]: 26%, 59% and 12%.
The matching figures for `COc1ccc(CC(=O)Nc2cc(-c3ccc(F)cc3OC)ccn2)cc1` [Example 6, N-(4-(4-Fluoro-2-methoxyphenyl)pyridin-2-yl)-2-(4-methoxyphenyl)-acetamide]: 7%, 68% and 16%.
As for `COc1cc(F)ccc1-c1ccnc(NC(=O)[C@H]2CC[C@@H](Nc3nccs3)CC2)c1` [Example 35, cis-N-(4-(4-Fluoro-2-methoxyphenyl)pyridin-2-yl)-4-(thiazol-2-ylamino)-cyclohexanecarboxamide], the activity at 3 µM in experiment [1] stood at 2%. On CDK9, the remaining activity at 0.01 µM is 36% and the remaining activity at 0.1 µM turned out to be 4%.
On the same counts, the results for `COc1cc(F)ccc1-c1ccnc(NC(=O)C2CCNCC2)c1` [Example 3, N-(4-(4-Fluoro-2-methoxyphenyl)pyridin-2-yl)piperidine-4-carboxamide] are 5%, 86% and 9%.
The matching figures for `COc1cc(F)ccc1-c1ccnc(NC(=O)C(C)Cc2cccnc2)c1` (stereo not drawn) [Example 24, N-(4-(4-Fluoro-2-methoxyphenyl)pyridin-2-yl)-2-((pyridin-3-yl)methyl)-propanamide]: 104%, 92% and 32%.
The matching figures for `COc1cc(F)ccc1-c1ccnc(NC(=O)CC(C)c2ccncc2)c1` (stereo not drawn) [Example 21, N-(4-(4-Fluoro-2-methoxyphenyl)pyridin-2-yl)-3-(pyridin-4-yl)butanamide]: 82%, 88% and 29%.
Consider `COc1cc(F)ccc1-c1ccnc(NC(=O)C(C)c2ccncc2)c1` (stereo not drawn) [Example 16, N-(4-(4-Fluoro-2-methoxyphenyl)pyridin-2-yl)-2-(pyridin-4-yl)propanamide], for which the “Efficacy (ratio to DMSO) TNF-alpha induced response” value in experiment [1] worked out at 0.04. In addition, at CDK9, the “CDK9 10 nM (RA in %)” value worked out at 65% and the “CDK9 100 nM (RA in %)” value was 7%.
As to `COc1cc(F)ccc1-c1ccnc(NC(=O)[C@@H]2CC[C@H](Nc3ccccc3)C2)c1` [Example 39, (1R,3S)—N-(4-(4-Fluoro-2-methoxyphenyl)pyridin-2-yl)-3-(phenylamino)-cyclopentanecarboxamide], the activity at 3 µM in experiment [1] is 5%. At CDK9, the remaining activity at 0.01 µM amounted to 60% and the remaining activity at 0.1 µM came to 6%.
On the same counts, the results for `COc1cc(F)ccc1-c1ccnc(NC(=O)Cc2ccc(N3CCN(C)CC3)cc2)c1` [Example 20, N-(4-(4-Fluoro-2-methoxyphenyl)pyridin-2-yl)-2-(4-(4-methylpiperazin-1-yl)phenyl)acetamide] are 8%, 39% and 5%.
